Reference: PMC3127977, “No relevant cardiac, pharmacokinetic or safety interactions between roflumilast and inhaled formoterol in healthy subjects: an open-label, randomised, actively controlled study” (BMC Clinical Pharmacology, 2011)

Tests used:
healthy subjects [1] = assay: Transthoracic impedance cardiography (ZCG) and systolic time intervals in healthy men; oral roflumilast 500 μg once daily, inhaled formoterol 24 μg twice daily; details: Regimen A
Description: For Regimen A, subjects received 500 μg oral roflumilast once daily (daily dose: one tablet of roflumilast 500 μg) from the morning of Day 2 to the morning of Day 18. […] For Regimen B, subjects received 24 μg formoterol for oral inhalation delivered by a DPI device (Foradil® P) twice daily, once in the morning and once in the evening from the morning of Day 2 to the evening of Day 18.
Cardiovascular effects were evaluated non-invasively by means of ECGs (cardiac rhythm, intra-cardiac conduction and ventricular repolarisation), oscillometric blood pressure and transthoracic impedance cardiography (ZCG; systolic time intervals, contractility indices and estimates of stroke volume and cardiac output). Cardiovascular assessments (oscillometric blood pressure, pulse rate, 12-lead ECG, and three-lead ZCG) were recorded before dosing and at 10, 20, 40 and 60 minutes, and at 2, 3, 4, 5, 6, 7 and 8 hours after morning dosing. […] All cardiovascular measurements were carried out after the subjects had been recumbent for at least 10 minutes; they generally stayed in bed from 1 hour before until 8 hours after morning dosing.
Systolic time intervals (STIs) and ZCG estimates of the systolic cardiac pump performance were derived from the simultaneous registration of a one-lead ECG, a phonocardiogram (PCG), and the rate of change of the transthoracic impedance (dZ/dt) to an AC current applied through the thoracic cage (CARDIODYNAGRAPH; Diefenbach GmbH, Wiesbaden, Germany). Tracings were captured and stored digitally during the study and subsequently analysed after the study by displaying the analogue ECG, PCG and ZCG signals on a computer screen. The relevant signal amplitudes and time intervals were delineated manually by operator-steered cursors; measurements were made for at least 10 artefact-free consecutive cardiac cycles. From these tracings, the following variables were derived by direct measurement: RR interval (ms), total electromechanic systole (QS2 [ms]), ventricular ejection time (VET [ms]), baseline transthoracic impedance (Z0 [Ω]), and maximum negative velocity of transthoracic impedance changes during the cardiac cycle (dZ/dtmax [Ω/s]). These variables were analysed for the 10 cycles and their means were used in the calculations of the following variables: heart rate (HR [bpm]), pre-ejection period (PEP [ms] = QS2 - VET), HR-corrected STIs (STIc and STIi according to Weissler et al.), ZCG estimates of stroke volume (SV [mL] according to Kubicek's equation [37] using the equation of Geddes and Sadler for the specific resistance of blood), cardiac output (CO [mL/min]), and total peripheral resistance (TPR [dyn.s.cm^-5]). For the latter variable, the mean blood pressure (MBP [mmHg]) was used as calculated according to Wezler and Böger from the systolic blood pressure (mmHg) and the diastolic blood pressure (mmHg).
ZCG analysis was carried out by a single analyst who was blinded with regard to subject, study regimen, profiling day within regimen, and time during the day.

healthy subjects [2] = assay: Digital 12-lead electrocardiography (HR, QT, QTc); type: in vivo, human
Description: Digital 12-lead ECGs were recorded immediately after each ZCG recording. Tracings were analysed off-study by regimen-blinded qualified analysts, using previously reported methodology. For each time point, three cycles were measured with regard to the RR, PQ and QT-intervals [ms]. The means of the three measurements were used for the calculation of HR and HR-corrected QTc intervals, according to Bazett's equation (QTcB = QT/RR^1/2) and Fridericia's equation (QTcF = QT/RR^1/3).

healthy subjects [3] = system: healthy subjects; set-up: method as in earlier work; details: cited from earlier work

CO, Day 1-matched post-dose maximum dmax (δ), median (healthy subjects [1]; Day 11 (R)): 1.6 L/min | CO, Day 1-matched post-dose minimum dmin (δ), median (healthy subjects [1]; Day 11 (R)): -1.7 L/min | CO, untransformed post-dose maximum dmax (U), median (healthy subjects [1]; Day 11 (R)): 10.6 L/min | CO, untransformed post-dose minimum dmin (U), median (healthy subjects [1]; Day 11 (R)): 8.3 L/min | CO, untransformed pre-dose morning value, median (healthy subjects [1]; Day 11 (R)): 9.1 L/min | HR, Day 1-matched post-dose maximum dmax (δ), median (healthy subjects [1]; Day 11 (R)): 9 bpm | HR, Day 1-matched post-dose minimum dmin (δ), median (healthy subjects [1]; Day 11 (R)): -4 bpm | HR, untransformed post-dose maximum dmax (U), median (healthy subjects [1]; Day 11 (R)): 64 bpm | HR, untransformed post-dose minimum dmin (U), median (healthy subjects [1]; Day 11 (R)): 54 bpm | HR, untransformed pre-dose morning value, median (healthy subjects [1]; Day 11 (R)): 63 bpm | PEP, Day 1-matched post-dose maximum dmax (δ), median (healthy subjects [1]; Day 11 (R)): 25 ms | PEP, Day 1-matched post-dose minimum dmin (δ), median (healthy subjects [1]; Day 11 (R)): -27 ms | PEP, untransformed post-dose maximum dmax (U), median (healthy subjects [1]; Day 11 (R)): 121 ms | PEP, untransformed post-dose minimum dmin (U), median (healthy subjects [1]; Day 11 (R)): 86 ms | PEP, untransformed pre-dose morning value, median (healthy subjects [1]; Day 11 (R)): 94 ms | QS2, Day 1-matched post-dose maximum dmax (δ), median (healthy subjects [1]; Day 11 (R)): 19 ms | QS2, Day 1-matched post-dose minimum dmin (δ), median (healthy subjects [1]; Day 11 (R)): -34 ms | QS2, untransformed post-dose maximum dmax (U), median (healthy subjects [1]; Day 11 (R)): 454 ms | QS2, untransformed post-dose minimum dmin (U), median (healthy subjects [1]; Day 11 (R)): 410 ms | QS2, untransformed pre-dose morning value, median (healthy subjects [1]; Day 11 (R)): 423 ms | TPR, Day 1-matched post-dose maximum dmax (δ), median (healthy subjects [1]; Day 11 (R)): 126 dyn.s.cm^-5 | TPR, Day 1-matched post-dose minimum dmin (δ), median (healthy subjects [1]; Day 11 (R)): -128 dyn.s.cm^-5 | TPR, untransformed post-dose maximum dmax (U), median (healthy subjects [1]; Day 11 (R)): 934 dyn.s.cm^-5 | TPR, untransformed post-dose minimum dmin (U), median (healthy subjects [1]; Day 11 (R)): 733 dyn.s.cm^-5 | TPR, untransformed pre-dose morning value, median (healthy subjects [1]; Day 11 (R)): 838 dyn.s.cm^-5 | dZ/dt, Day 1-matched post-dose maximum dmax (δ), median (healthy subjects [1]; Day 11 (R)): 0.28 Ω/s | dZ/dt, Day 1-matched post-dose minimum dmin (δ), median (healthy subjects [1]; Day 11 (R)): -0.10 Ω/s | dZ/dt, untransformed post-dose maximum dmax (U), median (healthy subjects [1]; Day 11 (R)): 1.93 Ω/s | dZ/dt, untransformed post-dose minimum dmin (U), median (healthy subjects [1]; Day 11 (R)): 1.56 Ω/s | dZ/dt, untransformed pre-dose morning value, median (healthy subjects [1]; Day 11 (R)): 1.67 Ω/s | CO, dmax (U), point estimate (95% CI) of difference between days (healthy subjects [1]; Day 11-Day 1): 0.2 (-1.1 to 1.4) L/min | CO, dmin (U), point estimate (95% CI) of difference between days (healthy subjects [1]; Day 11-Day 1): -0.4 (-1.2 to 0.4) L/min | CO, untransformed pre-dose morning value, point estimate (95% CI) of difference between days (healthy subjects [1]; Day 11-Day 1): -0.6 (-1.7 to 0.5) L/min | HR, dmax (U), point estimate (95% CI) of difference between days (healthy subjects [1]; Day 11-Day 1): 3 (-4 to 6) bpm | HR, dmin (U), point estimate (95% CI) of difference between days (healthy subjects [1]; Day 11-Day 1): 4 (1 to 7) bpm | HR, untransformed pre-dose morning value, point estimate (95% CI) of difference between days (healthy subjects [1]; Day 11-Day 1): 3 (-5 to 8) bpm | PEP, dmax (U), point estimate (95% CI) of difference between days (healthy subjects [1]; Day 11-Day 1): 3 (-7 to 11) ms | PEP, dmin (U), point estimate (95% CI) of difference between days (healthy subjects [1]; Day 11-Day 1): 0 (-9 to 13) ms | PEP, untransformed pre-dose morning value, point estimate (95% CI) of difference between days (healthy subjects [1]; Day 11-Day 1): -3 (-17 to 10) ms | QS2, dmax (U), point estimate (95% CI) of difference between days (healthy subjects [1]; Day 11-Day 1): -1 (-11 to 11) ms | QS2, dmin (U), point estimate (95% CI) of difference between days (healthy subjects [1]; Day 11-Day 1): -9 (-21 to 8) ms | QS2, untransformed pre-dose morning value, point estimate (95% CI) of difference between days (healthy subjects [1]; Day 11-Day 1): -10 (-21 to 2) ms | TPR, dmax (U), point estimate (95% CI) of difference between days (healthy subjects [1]; Day 11-Day 1): 47 (-124 to 178) dyn.s.cm^-5 | TPR, dmin (U), point estimate (95% CI) of difference between days (healthy subjects [1]; Day 11-Day 1): -18 (-96 to 43) dyn.s.cm^-5 | TPR, untransformed pre-dose morning value, point estimate (95% CI) of difference between days (healthy subjects [1]; Day 11-Day 1): 14 (-98 to 121) dyn.s.cm^-5 | dZ/dt, dmax (U), point estimate (95% CI) of difference between days (healthy subjects [1]; Day 11-Day 1): -0.05 (-0.25 to 0.15) Ω/s | dZ/dt, dmin (U), point estimate (95% CI) of difference between days (healthy subjects [1]; Day 11-Day 1): 0.03 (-0.18 to 0.20) Ω/s | dZ/dt, untransformed pre-dose morning value, point estimate (95% CI) of difference between days (healthy subjects [1]; Day 11-Day 1): -0.06 (-0.29 to 0.16) Ω/s
SMILES: O=C(Nc1c(Cl)cncc1Cl)c1ccc(OC(F)F)c(OCC2CC2)c1 [Roflumilast, 3-cyclopropylmethoxy-N-(3,5-dichloropyridin-4-yl)-4-(difluoromethoxy)benzamide]
effect on cardiovascular function (ZCG/STI variables) (healthy subjects [1]; roflumilast alone): little effect | HR (ECG) (healthy subjects [2]; 12-lead ECG): slight increase | QTc values, uncorrected or corrected using Bazett's or Fridericia's formula (healthy subjects [2]; 12-lead ECG): no clinically relevant changes | duration of the QT interval (healthy subjects [2]; 12-lead ECG): decrease | QT/QTc intervals (healthy subjects [2]; all subjects, all regimens): below 450 ms | effect on cardiac repolarisation (QT/QTc interval) (healthy subjects [3]): no significant effect
